Results taken from the CheMixHub viscosity set.
± gives the uncertainty stated by the source.

Assay: xn = mol fraction of the nth substance listed

BrC1CCCCC1 + CC(C)CO
viscosity [mPa·s], 101.33 kPa
Settings	x1 = 0.0998	x1 = 0.2024	x1 = 0.3028	x1 = 0.3991	x1 = 0.4983	x1 = 0.5946	x1 = 0.7011	x1 = 0.8014	x1 = 0.9015
298.15 K	2.871 ± 0.022	2.496 ± 0.02	2.252 ± 0.018	2.095 ± 0.017	1.981 ± 0.017	1.915 ± 0.016	1.878 ± 0.016	1.877 ± 0.016	1.915 ± 0.017
313.15 K	1.846 ± 0.015	1.656 ± 0.013	1.539 ± 0.013	1.47 ± 0.012	1.42 ± 0.012	1.401 ± 0.012	1.399 ± 0.012	1.419 ± 0.013	1.465 ± 0.013

Cc1cccc(C)c1 + CC(C)CO
308.15 K, 101 kPa
Settings	viscosity [mPa·s]
x2 = 0.066	0.543 ± 0.011
x2 = 0.1299	0.555 ± 0.012
x2 = 0.2218	0.581 ± 0.012
x2 = 0.3376	0.635 ± 0.013
x2 = 0.4463	0.714 ± 0.015
x2 = 0.5733	0.862 ± 0.018
x2 = 0.6333	0.954 ± 0.02
x2 = 0.7251	1.146 ± 0.024
x2 = 0.8223	1.479 ± 0.031
x2 = 0.9039	1.794 ± 0.037
x2 = 0.9623	2.218 ± 0.046

NCCCO + CC(C)CO
293.15 K, 101 kPa
Settings	viscosity [mPa·s]
x1 = 0.501	13.95 ± 0.62
x1 = 0.7008	21.85 ± 0.93

Nc1ccccc1Cl + CC(C)CO
viscosity [mPa·s], 101 kPa
Settings	x1 = 0.0805	x1 = 0.1856	x1 = 0.2856	x1 = 0.3751	x1 = 0.4789	x1 = 0.5761	x1 = 0.6805	x1 = 0.7859	x1 = 0.8952
303.15 K	2.81 ± 0.61	3 ± 0.65	3.16 ± 0.69	3.29 ± 0.72	3.42 ± 0.74	3.53 ± 0.77	3.63 ± 0.79	3.71 ± 0.81	3.78 ± 0.82
308.15 K	2.46 ± 0.53	2.66 ± 0.58	2.81 ± 0.61	2.92 ± 0.63	3.05 ± 0.66	3.15 ± 0.68	3.25 ± 0.71	3.33 ± 0.72	3.39 ± 0.74
313.15 K	2.16 ± 0.47	2.35 ± 0.51	2.5 ± 0.54	2.61 ± 0.57	2.73 ± 0.59	2.83 ± 0.62	2.93 ± 0.64	2.99 ± 0.65	3.01 ± 0.65
318.15 K	1.9 ± 0.41	2.08 ± 0.45	2.23 ± 0.48	2.33 ± 0.51	2.45 ± 0.53	2.55 ± 0.55	2.65 ± 0.58	2.73 ± 0.59	2.78 ± 0.6

O=S1(=O)CCCC1 + CC(C)CO
viscosity [mPa·s], 101 kPa
Settings	x1 = 0.0598	x1 = 0.1852	x1 = 0.259	x1 = 0.3891	x1 = 0.5066	x1 = 0.5903	x1 = 0.7089	x1 = 0.7888	x1 = 0.9464
303.15 K	2.606 ± 0.03	2.541 ± 0.028	2.648 ± 0.029	2.978 ± 0.034	3.416 ± 0.04	3.853 ± 0.046	4.763 ± 0.059	5.677 ± 0.066	6.708 ± 0.081
308.15 K	2.261 ± 0.024	2.222 ± 0.024	2.319 ± 0.025	2.611 ± 0.03	3.017 ± 0.035	3.414 ± 0.04	4.229 ± 0.051	5.037 ± 0.062	7.667 ± 0.089
313.15 K	1.971 ± 0.02	1.954 ± 0.021	2.045 ± 0.022	2.309 ± 0.025	2.681 ± 0.031	3.043 ± 0.035	3.778 ± 0.045	4.493 ± 0.053	6.786 ± 0.084
